Data on 17 compounds can be found in PubChem BioAssay (NCI).

Some test systems named below: IGROV1 ovarian; LOX IMVI melanoma; SF-268 CNS; SN12C renal; SNB-19 CNS; UACC-62 melanoma; SR leukemia; HS 578T breast; T-47D breast; MDA-MB-435.
What all share (assay): NCI tumour cell line growth inhibition, 48 h

SMILES strings stand for the structures. “And” between values parts separate entries of the source, which are not always exact repeats. Identical values can stand only once.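 Step 1: Grow cells in 96-well plates. Step 2: Expose to compound for 48 hours at 5 concentrations. Step 3: Interpolate endpoints linearly; if unreached, use highest concentration. The concentration for 50% growth inhibition is given as GI50. TGI: total growth inhibition.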

Regarding `c1ccc(C(c2ccccc2)c2cccnc2)cc1`, the TGI in the test with IGROV1 ovarian, in the test on LOX IMVI melanoma, with SF-268 CNS, in the test with SN12C renal, in the test with SNB-19 CNS and with UACC-62 melanoma was over 100 µM in each case.

Regarding `CC(=O)NNc1nc(C)c(C(=O)/C=C/c2ccccc2Cl)s1`, the TGI with IGROV1 ovarian, in the test with LOX IMVI melanoma, in the test on SF-268 CNS, in the test with SN12C renal, in the test on SNB-19 CNS and in the test with UACC-62 melanoma was over 100 µM in each case.

On to `O=C(O/C(=C(/N=Nc1ccccc1)c1ccccc1)c1ccccc1)c1ccccc1`, for which the TGI with IGROV1 ovarian, in the test with SN12C renal, with SNB-19 CNS, in the test on SR leukemia and in the test on UACC-62 melanoma was over 100 µM in each case.

For the compound `O=c1[nH]nc2ccccc2c1Cc1ccccc1`, the TGI in the test on IGROV1 ovarian, with LOX IMVI melanoma, with SF-268 CNS, in the test with SN12C renal, in the test with SNB-19 CNS and in the test on UACC-62 melanoma was over 100 µM throughout.

`N.N.N.N.N.[Cl-].[Co+3].c1ccc(-c2nn[n-]n2)cc1`: the GI50 with IGROV1 ovarian was over 100000 nM; in the test on LOX IMVI melanoma, over 100 µM; in the test with SF-268 CNS it was over 100000 nM; in the test on SN12C renal it was over 100000 nM; in the test with SNB-19 CNS, over 100 µM; with SR leukemia, over 100 µM. In the test on UACC-62 melanoma, the GI50 is over 100 µM. The TGI with IGROV1 ovarian, in the test on LOX IMVI melanoma, with SF-268 CNS, in the test with SN12C renal, in the test on SNB-19 CNS and in the test with SR leukemia was over 100 µM in each case. The same compound returned a TGI in the test on UACC-62 melanoma of over 100 µM.

As to `O=C(CC(=O)C1=CNc2ccccc2S1)C(=O)Nc1ccc(Cl)cc1`, the TGI with IGROV1 ovarian, with LOX IMVI melanoma, in the test with SF-268 CNS, in the test with SN12C renal, in the test with SNB-19 CNS and with UACC-62 melanoma was over 50 µM throughout.

With `Clc1ccc(N=Nc2nc3ccccc3nc2N=Nc2ccc(Cl)cc2Cl)c(Cl)c1`, the TGI in the test with IGROV1 ovarian, with LOX IMVI melanoma, with SF-268 CNS, in the test with SN12C renal, in the test on SNB-19 CNS and in the test with SR leukemia was over 100 µM throughout.

Consider `O=C1Nc2nc3ccccc3n2N=C2CCCC12` (stereo not drawn), for which the TGI in the test on IGROV1 ovarian, with LOX IMVI melanoma, with SF-268 CNS, with SN12C renal, in the test with SNB-19 CNS and in the test with UACC-62 melanoma was over 100 µM in each case.

In the case of `COCC(O)Cn1ccnc1[N+](=O)[O-]` (stereo not drawn), the TGI in the test on LOX IMVI melanoma, with SF-268 CNS, in the test on SN12C renal, in the test with SNB-19 CNS and in the test with SR leukemia was over 100 µM each time.

`CCOC1=C2C(=O)OC(=O)C2C2CCCCC2=C1` (stereo not drawn): the TGI with IGROV1 ovarian, in the test on LOX IMVI melanoma, in the test on SF-268 CNS, with SN12C renal, in the test on SNB-19 CNS and in the test on UACC-62 melanoma was over 100 µM each time.

Turning to `CCC(C)[C@H]1O[C@]2(C=C[C@@H]1C)C[C@@H]1C[C@@H](C/C=C(\C)[C@@H](OC3C[C@H](OC)C(O[C@H]4C[C@H](OC)[C@@H](O)[C@H](C)O4)[C@H](C)O3)[C@@H](C)/C=C/C=C3\CO[C@@H]4[C@H](O)C(C)=C[C@@H](C(=O)O1)[C@]34O)O2` (stereo partly drawn), the GI50 was 1020 nM in the test on HS 578T breast; 1010 nM in the test with SF-268 CNS; 1650 nM in the test with SN12C renal; 3.38 µM in the test on SNB-19 CNS; 1090 nM in the test on T-47D breast; 1.53 µM in the test with UACC-62 melanoma. In addition, the TGI in the test with HS 578T breast stood at 2870 nM; with SF-268 CNS, 2.14 µM; in the test with SN12C renal, 6.95 µM; in the test on SNB-19 CNS, 41.1 µM; with T-47D breast it was 3.58 µM; with UACC-62 melanoma it was 7.64 µM.

In the case of `CCn1cc(C(=O)N/N=C/c2ccccc2)c(=O)c2cc(F)c(N3CCNC(C)C3)c(F)c21` (stereo not drawn), the GI50 was 1710 nM in the test with IGROV1 ovarian, 1910 nM in the test with MDA-MB-435 and 1960 nM with SF-268 CNS. Besides, the values for the TGI in the test on IGROV1 ovarian, in the test with MDA-MB-435 and with SF-268 CNS were 3.2 µM, 3360 nM and 3.62 µM, respectively.

Regarding `COc1cccc2c1C(=O)c1c(O)c3c(c(O)c1C2=O)CC(O)(C(O)CO)CC3OC1CC(N2CCOCC2)C(O)C(C)O1` (stereo not drawn), the TGI with HS 578T breast is 214 nM; with LOX IMVI melanoma, 0.15 µM and 0.0586 µM; in the test with MDA-MB-435, 56.8 nM; in the test on SF-268 CNS, 0.0166 µM and 0.158 µM; in the test on SNB-19 CNS, 0.139 µM and 0.801 µM. The GI50 in the test on IGROV1 ovarian was 28.8 nM; with LOX IMVI melanoma, 0.00285 µM; in the test on SF-268 CNS it was 26.5 nM; in the test with SN12C renal it was 18.6 nM; in the test with SNB-19 CNS, 0.0305 µM.

For `C1COCCN1.C1COCCN1.NC1CCCCC1N.[Cl-].[Pt+2]` (stereo not drawn), the GI50 was over 100000 nM in the test on IGROV1 ovarian; over 100 µM in the test on LOX IMVI melanoma; over 100000 nM in the test on SF-268 CNS; over 100000 nM with SN12C renal; over 100 µM in the test with SNB-19 CNS; over 100 µM with UACC-62 melanoma. For the same compound, the TGI in the test with IGROV1 ovarian, with LOX IMVI melanoma, with SF-268 CNS, in the test with SN12C renal, in the test with SNB-19 CNS and in the test with UACC-62 melanoma was over 100 µM each time.

As for `Cc1oc2c(C)c3oc(=O)cc(C)c3cc2c1CN1C(=O)C2OCCOCCOCCOCCOCCO[C@H]2C1=O` (stereo partly drawn), the TGI with IGROV1 ovarian, in the test on LOX IMVI melanoma, in the test with SF-268 CNS, in the test with SN12C renal, in the test on SNB-19 CNS and in the test on SR leukemia was over 100 µM throughout. The TGI in the test with UACC-62 melanoma was over 100 µM.

For `Cc1cc2c(C)nn(Cc3ccccc3)c2c(C(N)=O)c1C`, the TGI in the test on IGROV1 ovarian, with LOX IMVI melanoma, in the test with SF-268 CNS, in the test with SN12C renal, with SNB-19 CNS and in the test on UACC-62 melanoma was over 100 µM in each case.

On to `OCC1C(/C=C/c2ccoc2)ON2CCCC12` (stereo not drawn), for which the TGI in the test with LOX IMVI melanoma, in the test with SF-268 CNS, with SN12C renal and in the test with SNB-19 CNS was over 100 µM throughout.
